Measured values as given in ChEMBL document CHEMBL3885861, “Open TG-GATES”.

Organism: Rattus norvegicus
Test: Open TG-GATES - Regimen: Daily Repeat
Format: toxicity, organism-based, Sprague-Dawley
Set-up: regimen Daily Repeat, gender Male, age 6 weeks
Details: in vivo, po, 400 mg/kg, route gavage, dose level High; for APTT / Bas / Eos / Fbg / Hb / Ht / Lym / MCH / MCHC / MCV / Mono / Neu / PT / Plat / RBC / Ret / WBC: tissue Blood; for KIDNEY_L / KIDNEY_R / KIDNEY_TOTAL: tissue Kidney; for LIVER: tissue Liver; for A/G / ALP / ALT / AST / BUN / CRE / Ca / Cl / DBIL / GLC / IP / K / LDH / Na / PL / RALB / TBIL / TC / TG / TP / gamma-GTP: tissue Plasma

## Cc1cccc(C)c1OCC(C)N (configuration not stated) [MEXILETINE]
72 h, time 3 day
  TERMINAL_BW: 229.5 g
  APTT: 21.1 s
  Bas: 0%
  Eos: 1%
  Fbg: 337.4 mg/dL
  Hb: 13.2 g/dL
  Ht: 40.8%
  Lym: 76.6%
  MCH: 19.9 pg
  MCHC: 32.5%
  MCV: 61.3 fL
  Mono: 2.2%
  Neu: 19.6%
  PT: 15.8 s
  Plat: 111.4 x10_4/uL
  RBC: 666.8 x10_4/ul
  Ret: 5.4%
  WBC: 88.4 x10_2/uL
  KIDNEY_L: 1 g
  KIDNEY_R: 1.1 g
  KIDNEY_TOTAL: 2.1 g
  LIVER: 10.3 g
  A/G: 1.3
  ALP: 1772.8 IU/L
  ALT: 54 IU/L
  AST: 75.6 IU/L
  BUN: 13.8 mg/dL
  CRE: 0.1 mg/dL
  Ca: 10.5 mg/dL
  Cl: 106.2 meq/L
  DBIL: 0 mg/dL
  GLC: 191.4 mg/dL
  IP: 7.4 mg/dL
  K: 4 meq/L
  LDH: 170 IU/L
  Na: 142.2 meq/L
  PL: 155.6 mg/dL
  RALB: 3.2 g/dL
  TBIL: 0.008 mg/dL
  TC: 86 mg/dL
  TG: 87.4 mg/dL
  TP: 5.6 g/dL
  gamma-GTP: 1.4 IU/L
[…], time 7 day
  TERMINAL_BW: 249.3 g
  APTT: 22.2 s
  Bas: 0%
  Eos: 0.4%
  Fbg: 343.8 mg/dL
  Hb: 13.8 g/dL
  Ht: 41.9%
  Lym: 79%
  MCH: 20.1 pg
  MCHC: 32.9%
  MCV: 61 fL
  Mono: 2%
  Neu: 17%
  PT: 16.4 s
  Plat: 111.8 x10_4/uL
  RBC: 687.2 x10_4/ul
  Ret: 4%
  WBC: 107.9 x10_2/uL
  KIDNEY_L: 1.1 g
  KIDNEY_R: 1.1 g
  KIDNEY_TOTAL: 2.3 g
  LIVER: 11.5 g
  A/G: 1.2
  ALP: 1505.6 IU/L
  ALT: 50.2 IU/L
  AST: 76 IU/L
  BUN: 18 mg/dL
  CRE: 0.2 mg/dL
  Ca: 10.9 mg/dL
  Cl: 104.6 meq/L
  DBIL: 0 mg/dL
  GLC: 180.6 mg/dL
  IP: 7.2 mg/dL
  K: 4.2 meq/L
  LDH: 130.4 IU/L
  Na: 143 meq/L
  PL: 168.4 mg/dL
  RALB: 3.1 g/dL
  TBIL: 0.004 mg/dL
  TC: 85.6 mg/dL
  TG: 138.2 mg/dL
  TP: 5.7 g/dL
  gamma-GTP: 1.2 IU/L
[…], time 14 day
  TERMINAL_BW: 299.7 g
  APTT: 21.7 s
  Bas: 0%
  Eos: 1%
  Fbg: 292.2 mg/dL
  Hb: 12.9 g/dL
  Ht: 39.9%
  Lym: 75.8%
  MCH: 20.5 pg
  MCHC: 32.4%
  MCV: 63.2 fL
  Mono: 2.4%
  Neu: 20.6%
  PT: 16.5 s
  Plat: 108.6 x10_4/uL
  RBC: 632.4 x10_4/ul
  Ret: 7.4%
  WBC: 62.3 x10_2/uL
  KIDNEY_L: 1.3 g
  KIDNEY_R: 1.3 g
  KIDNEY_TOTAL: 2.6 g
  LIVER: 13.9 g
  A/G: 1.1
  ALP: 1631.8 IU/L
  ALT: 70.2 IU/L
  AST: 97.6 IU/L
  BUN: 19.4 mg/dL
  CRE: 0.2 mg/dL
  Ca: 10.4 mg/dL
  Cl: 105.8 meq/L
  DBIL: 0 mg/dL
  GLC: 185 mg/dL
  IP: 7.1 mg/dL
  K: 4.4 meq/L
  LDH: 185.4 IU/L
  Na: 141 meq/L
  PL: 182.6 mg/dL
  RALB: 3.1 g/dL
  TBIL: 0 mg/dL
  TC: 88 mg/dL
  TG: 186.8 mg/dL
  TP: 5.9 g/dL
  gamma-GTP: 2.2 IU/L
[…], time 28 day
  TERMINAL_BW: 372.4 g
  APTT: 23.2 s
  Bas: 0%
  Eos: 1%
  Fbg: 334.4 mg/dL
  Hb: 15.5 g/dL
  Ht: 45.2%
  Lym: 76%
  MCH: 19.1 pg
  MCHC: 34.3%
  MCV: 55.6 fL
  Mono: 2.4%
  Neu: 19.4%
  PT: 16.1 s
  Plat: 101.2 x10_4/uL
  RBC: 813.6 x10_4/ul
  Ret: 2.4%
  WBC: 104.8 x10_2/uL
  KIDNEY_L: 1.5 g
  KIDNEY_R: 1.5 g
  KIDNEY_TOTAL: 3 g
  LIVER: 16.7 g
  A/G: 1.1
  ALP: 1359 IU/L
  ALT: 43.6 IU/L
  AST: 70 IU/L
  BUN: 18.2 mg/dL
  CRE: 0.2 mg/dL
  Ca: 10.5 mg/dL
  Cl: 104.2 meq/L
  DBIL: 0 mg/dL
  GLC: 183.8 mg/dL
  IP: 6.6 mg/dL
  K: 4.3 meq/L
  LDH: 144.6 IU/L
  Na: 142.2 meq/L
  PL: 180.4 mg/dL
  RALB: 3.1 g/dL
  TBIL: 0.01 mg/dL
  TC: 91.4 mg/dL
  TG: 162.6 mg/dL
  TP: 6.1 g/dL
  gamma-GTP: 1.8 IU/L
